Results published in US20060074084A1, “Inhibitors of soluble adenylate cyclase” (priority 2004, published 2006).
In brackets after ≈: the same amount, converted by molar mass. Where two headings read alike, the source gives them in different places.

Key:
[1] = Solubility; type: physicochemical
[2] = target: soluble, sperm-specific adenylate cyclase (sAC) (Homo sapiens, UniProt Q96PN6); assay: sAC-Assay (enzyme test, HTRF cAMP detection); type: biochemical
Excerpt: In a suitable buffer system, the soluble, sperm-specific adenylate cyclase catalyzes the reaction of adenosine triphosphate (ATP) to cyclic adenosine monophosphate (cAMP) and pyrophosphate. Free cAMP that is generated in this way is then used in a competitive detection process, in which the binding of a europium kryptate (Eu[K])-labeled anti-cAMP antibody (anti cAMP-Eu[K]-AK) to a cAMP-molecule-labeled, modified allophycocyanine-1 molecule (cAMP-XL665) is prevented. In the absence of exogenic cAMP, after excitation at 335 nm, it results in a fluorescence resonance energy transfer (FRET) between the anti cAMP-Eu[K]-AK (FRET-donor) and the cAMP-XL665 molecule (FRET-acceptor). This process is quantified at different times (time-resolved) based on the emission of FRET-acceptor XL665 (665 nm and 620 nm). A signal drop (measured as a wave ratio; calculation formula: [(E665 nm/E620 nm)×10000]) can be attributed to the presence of cAMP and thus to the activity of sAC.
First, 1.5 μl of the test substance (in 30% DMSO), only 30% DMSO in the solvent controls, is introduced per recess in a 384-hole test plate (polystyrene; 384, NV). Then, 10 μl of a dilute sAC enzyme solution is recovered (enzyme stock solution in 300 mmol of NaCl, 10% glycerol; pH 7.6; intermediate and final enzyme dilution a) 1:10 and b) 1:2000 in each case in: 1.0 mmol of MnCl2; 0.2% BSA; 50 mmol of tris, pH 7.5 in H2O). The enzyme reaction is started by adding 5 μl of the ATP-substrate solution (200 μmol of ATP in H2O) and is completed after incubation (25 minutes at room temperature) by the addition of 5 μl of stop solution (200 μmol of EDTA in PBS).
Then, 8 μl of detection solution 1 is introduced into a recess of the 384-hole measuring plate (measuring plate: polystyrene; 384, SV—black; detection solution 1:50 μl of cAMP-XL665; 950 μl of reconstitution buffer; 2200 [[…] of PBS; cAMP-XL665: production by the addition of 5 ml of H2O to the freeze-dried product as specified by Cis Bio Kit: #62AMPPEC instructions; storage: aliquoted at −80° C.). Then, 3 μl from the 91.5 μl is added to the corresponding recess of the test plate. Finally, the addition of 8 μl of detection solution 2 (detection solution 2: 50 μl of anti cAMP-Eu[K]-AK; 950 μl of reconstitution buffer; 2200 μl of PBS; anti cAMP-Eu[K]-AK: production as specified by Cis Bio Kit: #62AMPPEC instructions; storage: aliquoted at −80° C.) is carried out.
After an additional incubation of 90 minutes at room temperature, the HTRF result is measured either on the Packard Discovery or with the RubiStar HTRF measuring device (Delay: 50 μs; Integration time: 400 μs).

[3] = Biological Data table, read-out: Solubility
[4] = comparison with known compounds in the enzyme test

soluble, sperm-specific adenylate cyclase (sAC), sequence (Q96PN6 whole entry): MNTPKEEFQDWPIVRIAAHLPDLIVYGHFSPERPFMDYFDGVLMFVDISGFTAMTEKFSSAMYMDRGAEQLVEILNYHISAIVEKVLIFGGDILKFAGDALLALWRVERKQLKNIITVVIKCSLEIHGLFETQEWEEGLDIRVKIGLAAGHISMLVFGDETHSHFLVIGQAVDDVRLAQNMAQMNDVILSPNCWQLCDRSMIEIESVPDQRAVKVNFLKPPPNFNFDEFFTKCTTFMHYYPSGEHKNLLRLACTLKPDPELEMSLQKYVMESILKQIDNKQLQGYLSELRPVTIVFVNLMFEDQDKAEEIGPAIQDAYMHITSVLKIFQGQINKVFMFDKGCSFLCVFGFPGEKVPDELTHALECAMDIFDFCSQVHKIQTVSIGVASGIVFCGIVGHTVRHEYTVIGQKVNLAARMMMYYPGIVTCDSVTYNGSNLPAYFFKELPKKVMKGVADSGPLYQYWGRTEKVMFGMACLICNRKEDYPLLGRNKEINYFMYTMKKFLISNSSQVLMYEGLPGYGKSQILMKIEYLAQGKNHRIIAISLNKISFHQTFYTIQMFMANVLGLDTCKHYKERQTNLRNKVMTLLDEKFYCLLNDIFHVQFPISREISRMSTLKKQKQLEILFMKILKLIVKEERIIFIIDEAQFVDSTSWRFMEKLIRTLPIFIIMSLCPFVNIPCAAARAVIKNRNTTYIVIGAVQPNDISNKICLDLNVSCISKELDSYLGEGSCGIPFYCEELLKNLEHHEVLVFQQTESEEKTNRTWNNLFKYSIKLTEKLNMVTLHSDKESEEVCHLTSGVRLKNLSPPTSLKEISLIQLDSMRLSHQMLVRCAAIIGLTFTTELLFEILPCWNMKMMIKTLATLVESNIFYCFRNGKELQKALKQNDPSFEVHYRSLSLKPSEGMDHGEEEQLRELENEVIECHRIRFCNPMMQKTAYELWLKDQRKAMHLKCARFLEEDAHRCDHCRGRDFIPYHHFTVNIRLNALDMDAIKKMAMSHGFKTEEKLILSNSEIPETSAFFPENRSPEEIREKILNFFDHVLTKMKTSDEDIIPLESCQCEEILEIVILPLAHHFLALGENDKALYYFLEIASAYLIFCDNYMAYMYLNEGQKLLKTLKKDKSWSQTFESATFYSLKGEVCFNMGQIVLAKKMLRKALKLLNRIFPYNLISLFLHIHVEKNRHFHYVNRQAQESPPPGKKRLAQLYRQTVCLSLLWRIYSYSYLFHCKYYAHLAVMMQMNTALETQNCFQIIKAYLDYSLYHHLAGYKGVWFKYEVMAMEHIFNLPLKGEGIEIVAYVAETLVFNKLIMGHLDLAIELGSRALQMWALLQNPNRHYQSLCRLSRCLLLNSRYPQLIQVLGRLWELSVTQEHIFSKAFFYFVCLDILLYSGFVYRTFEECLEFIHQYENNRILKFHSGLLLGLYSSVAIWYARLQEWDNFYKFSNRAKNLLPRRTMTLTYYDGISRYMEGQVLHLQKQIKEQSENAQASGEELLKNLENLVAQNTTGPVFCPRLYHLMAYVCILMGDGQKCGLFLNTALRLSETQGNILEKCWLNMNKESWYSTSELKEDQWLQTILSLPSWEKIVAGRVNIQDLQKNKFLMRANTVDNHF

| solubility [1, 3] [µg/mL] | solubility ([1]; comparison table) [µg/mL] | IC50 ([2]; Biological Data table) [nM] | Compound | IC50 [2, 4] [nM] |
| --- | --- | --- | --- | --- |
| 5 (≈ 9.4 µM) | 5 (≈ 9.4 µM) | 86 | CC(C)(C)c1ccc(S(=O)(=O)Nc2ccc3[nH]c(C(=O)NC4CCOCC4)c(-c4ccccc4)c3c2)cc1 [Example 40, 5-(4-tert-Butylbenzenesulfonylamino)-3-phenyl-1H-indole-2-carboxylic acid-(tetrahydropyran-4-yl)amide] | 86 |
| 1 (≈ 1.91 µM) | – | – | CC(C)(C)c1ccc(S(=O)(=O)Nc2ccc3[nH]c(C(=O)Nc4cccnc4)c(-c4ccccc4)c3c2)cc1 [Example 2, 5-(4-tert-Butylbenzenesulfonylamino)-3-phenyl-1H-indole-2-carboxylic acid-pyridin-3-ylamide] | – |
| 2.1 (≈ 4.06 µM) | – | – | CCCNC(=O)c1[nH]c2ccc(NS(=O)(=O)c3ccc(OC(F)(F)F)cc3)cc2c1-c1ccccc1 [Example 10, 5-(4-(Trifluoromethoxy)benzenesulfonylamino)-3-phenyl-1H-indole-2-carboxylic acid propylamide] | – |
| 55 (≈ 106 µM) | – | 1300 | CN(C)CCNC(=O)c1[nH]c2ccc(NS(=O)(=O)c3ccc(C(C)(C)C)cc3)cc2c1-c1cccnc1 [Example 32, 5-(4-tert-Butylbenzenesulfonylamino)-3-pyridin-3-yl-1H-indole-2-carboxylic acid-(2-dimethylaminoethyl)amide] | – |
| 5 (≈ 9.04 µM) | 5 (≈ 9.04 µM) | 630 | CN(C)CCNC(=O)c1[nH]c2ccc(NS(=O)(=O)c3ccc(C(C)(C)C)cc3)cc2c1-c1cccc(Cl)c1 [Example 25, 5-(4-tert-Butylbenzenesulfonylamino)-3-(3-chlorophenyl)-1H-indole-2-carboxylic acid-(2-dimethylaminoethyl)amide] | 630 |
| 8 (≈ 14.5 µM) | – | 1600 | CN(C)CCNC(=O)c1[nH]c2ccc(NS(=O)(=O)c3ccc(C(C)(C)C)cc3)cc2c1-c1ccccc1Cl [Example 24, 5-(4-tert-Butylbenzenesulfonylamino)-3-(2-chlorophenyl)-1H-indole-2-carboxylic acid-(2-dimethylaminoethyl)amide] | – |
| 1.5 (≈ 3.06 µM) | – | 5300 | CCCNC(=O)c1[nH]c2ccc(NS(=O)(=O)c3ccc(C(C)(C)C)cc3)cc2c1-c1ccccc1 [Example 9, 5-(4-tert-Butylbenzenesulfonylamino)-3-phenyl-1H-indole-2-carboxylic acid propylamide] | – |
| 0.1 (≈ 0.193 µM) | 0.1 (≈ 0.193 µM) | – | CN(C)CCNC(=O)c1[nH]c2ccc(NS(=O)(=O)c3ccc(C(C)(C)C)cc3)cc2c1-c1ccccc1 [Example 6, 5-(4-tert-Butylbenzenesulfonylamino)-3-phenyl-1H-indole-2-carboxylic acid-(2-dimethylaminoethyl)amide] | – |
| 5 (≈ 9.39 µM) | – | 2700 | Cc1ccccc1-c1c(C(=O)NCCN(C)C)[nH]c2ccc(NS(=O)(=O)c3ccc(C(C)(C)C)cc3)cc12 [Example 28, 5-(4-tert-Butylbenzenesulfonylamino)-3-(2-methylphenyl)-1H-indole-2-carboxylic acid-(2-dimethylaminoethyl)amide] | – |
| 0.1 (≈ 0.191 µM) | – | 3400 | CC(C)(C)c1ccc(S(=O)(=O)Nc2ccc3[nH]c(C(=O)Nc4ccncc4)c(-c4ccccc4)c3c2)cc1 [Example 21, 5-(4-tert-Butylbenzenesulfonylamino)-3-phenyl-1H-indole-2-carboxylic acid-pyrindin-4-ylamide] | – |
| 7 (≈ 13.1 µM) | – | 2000 | Cc1ccc(-c2c(C(=O)NCCN(C)C)[nH]c3ccc(NS(=O)(=O)c4ccc(C(C)(C)C)cc4)cc23)cc1 [Example 29, 5-(4-tert-Butylbenzenesulfonylamino)-3-(4-methylphenyl)-1H-indole-2-carboxylic acid-(2-dimethylaminoethyl)amide] | – |
| 13 (≈ 26.4 µM) | – | 70 | CC(C)(C)c1ccc(S(=O)(=O)Nc2ccc3[nH]c(C(=O)NCCO)c(-c4ccccc4)c3c2)cc1 [Example 37, 5-(4-tert-Butylbenzenesulfonylamino)-3-phenyl-1H-indole-2-carboxylic acid-(2-hydroxyethyl)amide] | – |
| 4 (≈ 7.13 µM) | – | 150 | CC(C)(C)c1ccc(S(=O)(=O)Nc2ccc3[nH]c(C(=O)NCCN4CCOCC4)c(-c4ccccc4)c3c2)cc1 [Example 19, 5-(4-tert-Butylbenzenesulfonylamino)-3-phenyl-1H-indole-2-carboxylic acid-(2-morpholin-4-ylethyl)amide] | – |
| – | – | 2600 | CN1CCN(NC(=O)c2[nH]c3ccc(NS(=O)(=O)c4ccc(C(C)(C)C)cc4)cc3c2-c2ccccc2)CC1 [Example 20, 5-(4-tert-Butylbenzenesulfonylamino)-3-phenyl-1H-indole-2-carboxylic acid-(4-methylpiperazin-1-yl)amide] | – |
| 1 (≈ 1.89 µM) | – | 2000 | CC(C)(C)c1ccc(S(=O)(=O)Nc2ccc3[nH]c(C(=O)NC4CCCCC4)c(-c4ccccc4)c3c2)cc1 [Example 3, 5-(4-tert-Butylbenzenesulfonylamino)-3-phenyl-1H-indole-2-carboxylic acid-cyclohexylamide] | – |
| – | – | – | C[C@]12CC[C@@H]3c4ccc(O)c(O)c4CC[C@H]3[C@@H]1CC[C@@H]2O [4-OH-Estradiol, reference compound] | 13000 |
| – | – | – | C[C@]12CC[C@@H]3c4cc(O)c(O)cc4CC[C@H]3[C@@H]1CC[C@@H]2O [2-OH-Estradiol, reference compound] | 11000 |
| 1 (≈ 2.05 µM) | – | 3400 | CC(C)(C)c1ccc(S(=O)(=O)Nc2ccc3[nH]c(C(=O)NC4CC4)c(-c4ccccc4)c3c2)cc1 [Example 1, 5-(4-tert-Butylbenzenesulfonylamino)-3-phenyl-1H-indole-2-carboxylic acid-cyclopropylamide] | – |
| 7 (≈ 12.8 µM) | – | 1200 | COc1ccc(-c2c(C(=O)NCCN(C)C)[nH]c3ccc(NS(=O)(=O)c4ccc(C(C)(C)C)cc4)cc23)cc1 [Example 31, 5-(4-tert-Butylbenzenesulfonylamino)-3-(4-methoxyphenyl)-1H-indole-2-carboxylic acid-(2-dimethylaminoethyl)amide] | – |
| 3 (≈ 5.42 µM) | – | 9900 | CN(C)CCNC(=O)c1[nH]c2ccc(NS(=O)(=O)c3ccc(C(C)(C)C)cc3)cc2c1-c1ccc(Cl)cc1 [Example 26, 5-(4-tert-Butylbenzenesulfonylamino)-3-(4-chlorophenyl)-1H-indole-2-carboxylic acid-(2-dimethylaminoethyl)amide] | – |
